In the experiment the test system is MPA/DMBA-induced tumours. Nature of the experiment: MPA/DMBA-induced breast cancer model. As to conditions: palpable MPA/DMBA-induced tumours; systemic injection. It is filed as in vivo, C57BL/6 mice. Here is the method: Medroxyprogesterone acetate (MPA) pellets (50 mg, 90-day release) were implanted subcutaneously into the interscapular area of immunocompetent C57BL/6 mice. Then the animals received 1 mg dimethylbenzantracene (DMBA) administered by oral gavage 6× during 7 weeks. When spontaneous tumours became palpable mice were randomly assigned to receive 0.14 mg/Kg lurbinectedin (Lurbi) alone or in combination with double immune checkpoint blockade with monoclonal antibodies targeting CTLA-4 and PD-1 at day 6, 9 and 12 post treatment (a). The tumour area and overall survival were measured regularly until ethical endpoints were reached (b,c,d). Data were analyzed with TumGrowth (https://github.com/kroemerlab). […]
Six- to eight-week-old female wild-type C57BL/6 and nu/nu mice were obtained from Envigo France (Huntingdon, UK) and were kept in the animal facility at the Gustave Roussy Campus Cancer in a specific pathogen-free and temperature-controlled environment with 12 h day, 12 h night cycles and received food and water ad libitum. […] When tumours became palpable, 0.18 mg/Kg lurbinectedin was injected sequentially once a week intravenously into the tail vein and animal well-being and tumour growth were monitored. […] Animals were monitored and tumour growth documented regularly until end-points were reached. […]

Drawing on US20250295656A1, “COMBINATION OF LURBINECTEDIN AND IMMUNE CHECKPOINT INHIBITORS” (priority 2020, published 2025), this text covers overall survival and tumour growth for one compound.

`COc1ccc2[nH]c3c(c2c1)CCN[C@]31CS[C@@H]2c3c(OC(C)=O)c(C)c4c(c3[C@H](COC1=O)N1[C@@H]2[C@H]2c3c(cc(C)c(OC)c3O)C[C@@H]([C@@H]1O)N2C)OCO4` [lurbinectedin]: the overall survival entry was “increased” and the tumour growth entry is on record as “significantly reduced”.
